Here are results for 5 compounds from ChEMBL document CHEMBL3286250, “Oxirapentyns F-K from the marine-sediment-derived fungus Isaria felina KMM 4639” (J Nat Prod, 2014).

pIC50: −log10 of the molar value. Activity calls are given as the source filed them. No cut-off for these calls is given here.

Data set [1] has as its system Pseudomonas aeruginosa. As to the kind of experiment: Antimicrobial activity against Pseudomonas aeruginosa KMM 433 by agar diffusion method. The data set is classed as functional, organism-based.
The subject of data set [2] is Staphylococcus aureus. The experiment in a line: Antimicrobial activity against Staphylococcus aureus ATCC 21027 by agar diffusion method. Type of data set: functional, organism-based.
Data set [3] deals with Escherichia coli. The experiment in a line: Antimicrobial activity against Escherichia coli ATCC 15034 by agar diffusion method. Type of data set: functional, organism-based.
In data set [4] the test system is Bacillus subtilis. As to the kind of experiment: Antimicrobial activity against Bacillus subtilis KMM 430 by agar diffusion method. Type of data set: functional, organism-based.
Data set [5] relates to Candida albicans. The experiment in a line: Antimicrobial activity against Candida albicans KMM 455 by agar diffusion method. Type of data set: functional, organism-based.
A short description of data set [6]: Cytotoxicity against CD1 mouse splenocytes up to 100 uM after 46 hrs by MTS assay. The data set is classed as cell-based. To be noted: splenocyte.
Data set [7] in a line: Cytotoxicity against CD1 mouse erythrocytes up to 100 uM after 46 hrs by MTS assay. The data set is classed as cell-based. The note with it: erythrocyte.
Data set [8] has as its system HL-60. The experiment in a line: Cytotoxicity against human HL60 cells after 46 hrs by MTS assay. Type of data set: functional, cell-based. The note with it: HL-60, 46 h.
Data set [9] deals with THP-1. As to the kind of experiment: Cytotoxicity against human THP1 cells after 46 hrs by MTS assay. Type of data set: functional, cell-based. To be noted: THP-1, 46 h.

`C=C(C)C#C[C@]12O[C@H]1[C@@H]1OC(C)(C)[C@H](OC(C)=O)C[C@@]1(O)[C@@H](O)[C@@H]2O`: the result in [1], in [2], in data set [3], in data set [4] and in data set [5] was inactive.

Consider `C=C(C)C#C[C@@]1(O)[C@@H](O)[C@H](O)[C@]2(OC(C)=O)C[C@@H](O)C(C)(C)O[C@H]2[C@@H]1O`, for which the outcome in data set [1], in [2], in data set [3], in data set [4] and in data set [5] was inactive.

As for `COC(=O)/C=C/C(O)=C1\COCC(OC(C)=O)=C1C(=O)OC`, the Activity entry in data set [6] and in data set [7] was “Non-toxic” in each case. Also, the result in data set [1], in [2], in [3], in data set [4] and in data set [5] was inactive. Besides, the negative logarithm of the IC50 (pIC50) was 5.37 in [8] and 4.43 in [9].

`C=C(C)C#C[C@]1(O)[C@@H](O)[C@@H]2OC(C)(C)[C@H](OC(C)=O)C[C@@]23O[C@H]3[C@@H]1O`: the outcome in data set [1], in data set [2], in data set [3], in data set [4] and in data set [5] was inactive.

For the compound `CC(=O)O[C@@H]1C[C@]23O[C@H]2C2=C(C(=O)CC(C)(C)O2)[C@@H](O)[C@@H]3OC1(C)C`, the result in data set [1], in [2], in data set [3], in [4] and in [5] was inactive.
